{"source": "PubChem BioAssay AID2823", "about": "(Broad Institute, 2010)", "note": "Activity calls are given as the source filed them. No rule for the calls is given here.", "data": [{"molecular_target": "RanGTP-importin-beta complex (human Ran / KPNB1)", "assay": "disruptors of RanGTP/KPNB1 binding – biochemical, FRET, CFP/YFP, cell-free homogeneous, confirmation (AID 2823)", "conditions": "CFP-Ran/YFP-importin-beta FRET ratio", "values": [{"smiles": "CC1CN(c2cc(=O)n(-c3cccc(Br)c3)c(=O)[nH]2)CC(C)O1", "note": "(stereo unspecified)", "IC50": "> 50 µM (inactive)"}, {"smiles": "Cc1cc(C(=O)N/N=C2\\CC(=O)CC(C)(C)C2)n[nH]1", "IC50": "> 50 µM (inactive)"}, {"smiles": "Cc1ccc(Cl)cc1-n1c(=O)cc(N2CC(C)OC(C)C2)[nH]c1=O", "note": "(stereo unspecified)", "IC50": "> 50 µM (inactive)"}, {"smiles": "CC(O)CNc1nc2ccccc2n1CC(=O)NC12CC3CC(CC(C3)C1)C2", "note": "(stereo unspecified)", "IC50": "> 50 µM (inactive)"}, {"smiles": "CO/N=C\\c1cc(C(=O)c2ccc(Cl)cc2Cl)cn1C", "IC50": "> 50 µM (inactive)"}, {"smiles": "COc1cc(SC)ccc1C(=O)Nc1nc(C)cs1", "IC50": "> 50 µM (inactive)"}, {"smiles": "CCC(C)OC(=O)C[N+](C)(C)CCOC1CC2CCC1(C)C2(C)C", "note": "(stereo unspecified)", "IC50": "> 50 µM (inactive)"}, {"smiles": "COc1cc(C(=O)NCCCNc2nc3cc(C)cc(C)c3cc2C#N)cc(OC)c1OC", "IC50": "29.8 µM"}, {"smiles": "Cc1ccccc1/C=N/Nc1ccnc2cc(Cl)ccc12", "IC50": "> 50 µM (inactive)"}, {"smiles": "N#C/C(=C\\N1CCN(Cc2ccc3c(c2)OCO3)CC1)c1nc2ccccc2s1", "IC50": "> 50 µM (inactive)"}, {"smiles": "N#Cc1c(/N=C/c2ccc(O)cc2O)sc2c1C1CCN2CC1", "IC50": "> 50 µM (inactive)"}, {"smiles": "COc1ccc(-c2ccc(-c3noc(-c4ccccc4C)n3)c(OC)n2)cc1", "IC50": "> 50 µM (inactive)"}, {"smiles": "O=C(NNc1c2ccccc2nc2ccccc12)c1ccc(O)cc1O", "IC50": "> 50 µM (inactive)"}, {"smiles": "O=C(O)c1ccccc1P(=O)(c1ccccc1)c1ccccc1", "IC50": "> 50 µM (inactive)"}, {"smiles": "O=c1cc(N2CCN(Cc3ccccc3)CC2)[nH]c(=O)n1-c1ccc(Br)cc1", "IC50": "> 50 µM (inactive)"}, {"smiles": "CCN(CC)S(=O)(=O)c1ccc(NC(=O)c2cccc3c2C(=O)N(CCOC)C3)cc1", "IC50": "> 50 µM (inactive)"}, {"smiles": "CC(C)CCN(CCC(C)C)CC(O)Cn1c2ccccc2c(=O)c2ccccc21", "note": "(stereo unspecified)", "IC50": "6.71 µM"}, {"smiles": "CCOC(=O)C/C(=N\\Nc1ncnc2ccccc12)c1ccccc1", "IC50": "> 50 µM (inactive)"}, {"smiles": "COc1cc(NC(=O)c2cc(-c3cccs3)on2)cc(OC)c1OC", "IC50": "> 50 µM (inactive)"}, {"smiles": "COC(=O)C1=CN(Cc2ccc(OC)cc2)C=C(C(=O)OC)C1c1ccc(O)c(OC)c1", "IC50": "> 50 µM (inactive)"}, {"smiles": "COC(=O)C(C)Oc1ccc2c(c1)O/C(=C\\c1ccco1)C2=O", "note": "(stereo unspecified)", "IC50": "15.5 µM"}, {"smiles": "Cc1nn(C(=O)c2ccco2)c(C)c1CN1C(=O)c2ccccc2C1=O", "IC50": "> 50 µM (inactive)"}, {"smiles": "O=C(Cn1c(=O)c2cccn2c2cccnc21)NCCCN1CCN(c2ccc(F)cc2)CC1", "IC50": "> 50 µM (inactive)"}, {"smiles": "COc1cccc(C2=NOC(C(=O)Nc3cc(C)on3)C2)c1", "note": "(stereo unspecified)", "IC50": "> 50 µM (inactive)"}, {"smiles": "CC1(C)CNC(=O)C=C(c2ccccc2)C1", "IC50": "> 50 µM (inactive)"}, {"smiles": "COc1cccc(-c2coc3c(C)c4oc(=O)c(CC(=O)O)c(C)c4cc23)c1", "IC50": "> 50 µM (inactive)"}, {"smiles": "O=C(NCc1ccccc1C(F)(F)F)C1CC(c2ccc(C(F)(F)F)cc2)=NO1", "note": "(stereo unspecified)", "IC50": "> 50 µM (inactive)"}, {"smiles": "CC/C(=N\\NC(=O)c1cc(C2CC2)[nH]n1)c1ccccc1", "IC50": "> 50 µM (inactive)"}, {"smiles": "COCCNC(=O)/C(C#N)=C/c1ccc(-c2ccc(S(=O)(=O)N3CCOCC3)cc2)o1", "IC50": "> 50 µM (inactive)"}, {"smiles": "CCS(=O)(=O)c1nc(S(=O)(=O)c2ccc(C)cc2)c(NCc2ccccn2)s1", "IC50": "> 50 µM (inactive)"}, {"smiles": "COc1cc(NC(=O)Cn2ncc(Cl)c(Cl)c2=O)c(C)cc1[N+](=O)[O-]", "IC50": "> 50 µM (inactive)"}, {"smiles": "Cc1c(/C=N\\NC(=O)C2COc3ccccc3O2)c2ccccc2n1C", "note": "(stereo unspecified)", "IC50": "> 50 µM (inactive)"}, {"smiles": "Cc1ccc(Nc2nc(N)[nH]c(=O)c2N=O)cc1", "IC50": "16.1 µM"}, {"smiles": "COc1ccc(C(=O)/C=C(\\C)NCc2ccc3c(c2)OCO3)cc1", "IC50": "> 50 µM (inactive)"}, {"smiles": "Cc1ccc(-n2c(=O)c(C#N)cc3c(=O)n4ccccc4nc32)cc1", "IC50": "1.99 µM"}, {"smiles": "O=C(O)/C=C/C(=O)Nc1ccc2c(c1)NC(=O)CO2", "IC50": "> 50 µM (inactive)"}, {"smiles": "COc1ccc(-c2nc3ccc(C(=O)NCCCN4CCOCC4)cc3nc2-c2ccc(OC)cc2)cc1", "IC50": "46.4 µM"}, {"smiles": "CC(C)CCNC(=O)C(c1ccco1)N(Cc1ccccc1)C(=O)c1snc(C(N)=O)c1N", "note": "(stereo unspecified)", "IC50": "> 50 µM (inactive)"}, {"smiles": "CCOC(=O)c1c(NC(=O)CSc2nnc3c(n2)[nH]c2ccccc23)sc2c1CCN(C)C2", "IC50": "> 50 µM (inactive)"}, {"smiles": "O=C(c1cc(COc2ccc(F)cc2Cl)on1)N1CCCC(c2ccccc2)C1", "note": "(stereo unspecified)", "IC50": "> 50 µM (inactive)"}, {"smiles": "CC1=Nc2ccccc2/C1=C\\c1nc(-c2ccc(F)cc2)oc1O", "IC50": "> 50 µM (inactive)"}, {"smiles": "Cc1ccc(OCc2nnc(SCC(=O)CC(=O)Nc3ccccc3)o2)cc1", "IC50": "> 50 µM (inactive)"}, {"smiles": "Cc1ccc(S(=O)(=O)/C(C#N)=C/c2c(N3CCC(C(N)=O)CC3)nc3ccccn3c2=O)cc1", "IC50": "> 50 µM (inactive)"}, {"smiles": "CCC(=O)N(CC(=O)Nc1sc(C)c(C)c1C(N)=O)C1CCCC1", "IC50": "> 50 µM (inactive)"}, {"smiles": "CCCC1C(C#N)=C(N)Oc2cc(C)n(C)c(=O)c21", "note": "(stereo unspecified)", "IC50": "> 50 µM (inactive)"}, {"smiles": "C=CCn1c(SCC(=O)N2CCCCC2)nnc1-c1ccncc1", "IC50": "> 50 µM (inactive)"}, {"smiles": "CCN1CCc2nc(NC(=O)c3cc(F)c(F)cc3Cl)sc2C1", "IC50": "> 50 µM (inactive)"}, {"smiles": "CCCN1CC(O)=C(C#N)C1=O", "IC50": "> 50 µM (inactive)"}, {"smiles": "O=C(Cn1c2ccccc2c(=O)c2ccccc21)N/N=C/c1ccc(N2CCCC2)c([N+](=O)[O-])c1", "IC50": "> 50 µM (inactive)"}, {"smiles": "Cc1cc(O)ccc1NC1=CC(=O)CC(C)(C)C1", "IC50": "> 50 µM (inactive)"}, {"smiles": "CCCCCN(C(=O)CN(C)Cc1ccc(OC)cc1OC)c1c(N)n(CCCC)c(=O)[nH]c1=O", "IC50": "> 50 µM (inactive)"}, {"smiles": "CCc1ccc(C(=O)c2cc3ccc(O)cc3oc2=O)cc1", "IC50": "11.7 µM"}, {"smiles": "Cc1ccccc1NC(=O)/C(C#N)=C\\c1cn(CC(=O)O)c2ccccc12", "IC50": "47.6 µM"}, {"smiles": "COc1ccccc1C1CC(c2ccc(Cl)cc2)Nc2nc(N)nn21", "note": "(stereo unspecified)", "IC50": "> 50 µM (inactive)"}, {"smiles": "Nc1c(C(=O)NCc2ccccc2)c2nc3ccccc3nc2n1-c1ccc2c(c1)OCO2", "IC50": "15.2 µM"}, {"smiles": "COc1ccc(CCNC(=O)c2cc3c(=O)n4ccccc4nc3n(CC3CCCO3)c2=N)cc1OC", "note": "(stereo unspecified)", "IC50": "21.3 µM"}, {"smiles": "CCOC(=O)c1c(NC(=O)Nc2ccc(F)cc2)sc2c1CCN(C)C2", "IC50": "> 50 µM (inactive)"}, {"smiles": "Oc1ccccc1/C=N/Nc1cc(N2CCCC2)nc(N2CCCC2)n1", "IC50": "> 50 µM (inactive)"}, {"smiles": "CCOC(=O)/C=C1\\SCC(=O)N1CC(=O)c1ccc[nH]1", "IC50": "> 50 µM (inactive)"}, {"smiles": "Cn1c(=O)[nH]c2c(nc(-c3ccc(Cl)cc3)n2C)c1=O", "IC50": "26.1 µM"}, {"smiles": "CCN(CC)Cc1c(O)c(Cl)cc2c(C)c(C)c(=O)oc12", "IC50": "21.1 µM"}, {"smiles": "Cc1nc2[nH]c(=O)c3c(n2n1)NC1=C(C(=O)CC(C)(C)C1)C3c1ccccc1", "note": "(stereo unspecified)", "IC50": "3.37 µM"}, {"smiles": "Cc1cc(S(=O)(=O)N2CCN(c3c(C)cccc3C)CC2)ccc1F", "IC50": "> 50 µM (inactive)"}, {"smiles": "CCCSc1nnc(-c2c[nH]c3ccccc23)n1CC", "IC50": "> 50 µM (inactive)"}, {"smiles": "OCCC1CN(Cc2cccn2-c2cccnc2)CCN1Cc1ccc(F)cc1", "note": "(stereo unspecified)", "IC50": "> 50 µM (inactive)"}, {"smiles": "COC(=O)[C@@H]1[C@H]2C[C@H]3c4[nH]c5ccccc5c4CCN3C[C@@H]2CC[C@@H]1O", "IC50": "> 50 µM (inactive)"}, {"smiles": "Cc1onc(-c2ccccc2)c1C(=O)Nc1cccc2nsnc12", "IC50": "33.3 µM"}, {"smiles": "C=C(C)Cn1c(SCC(=O)O)nnc1-c1ccc(OC)cc1", "IC50": "> 50 µM (inactive)"}, {"smiles": "O=C(NNc1c2ccccc2nc2ccccc12)c1cc2ccccc2cc1O", "IC50": "> 50 µM (inactive)"}, {"smiles": "COC(=O)c1cccnc1NC(=S)NNC(=O)c1ccccc1", "IC50": "> 50 µM (inactive)"}, {"smiles": "O=C(O)C1C2CCC(C2)C1C(=O)NCCc1ccc(F)cc1", "note": "(stereo unspecified)", "IC50": "> 50 µM (inactive)"}]}]}
